Legend:
[1] = Inhibition of urease (unknown origin) using urea as substrate preincubated for 30 mins followed by substrate addition and measured after 20 mins by red phenol reagent based assay
[2] = Inhibition of urease (unknown origin) at 250 uM using urea as substrate preincubated for 30 mins followed by substrate addition and measured after 20 mins by red phenol reagent based assay relative to control; conditions: time 50.0 min

Row | IC50 [1] [µM] | inhibition [2] [%] | Compound
1 | 9.6 |  | Oc1ccc(CC[C@H](O)C[C@H](O)CCc2ccc(O)c(O)c2)cc1 (relative stereo)
2 | 153 |  | COc1cc(CC[C@@H](O)C[C@@H](O)CCc2ccc(O)cc2)ccc1O (relative stereo)
3 | 228 |  | COc1cc(CC[C@@H](O)C[C@@H](O)CCc2ccc(O)cc2)cc(OC)c1O (relative stereo)
4 | > 250 | 27.3 | COc1cc(CC[C@H](O)C[C@H](O)CCc2cc(OC)c(O)c(OC)c2)ccc1O (relative stereo)
5 | 21.8 |  | COc1cc(CC[C@@H](O)C[C@H](O)CCc2ccc(O)c(O)c2)ccc1O (relative stereo)
6 | 223 |  | COc1cc(CC[C@H](C[C@H](CCc2ccc(O)cc2)OC(C)=O)OC(C)=O)ccc1O (relative stereo)
7 | 129 |  | CC(=O)O[C@H](CCc1ccc(O)c(O)c1)C[C@H](CCc1ccc(O)cc1)OC(C)=O (relative stereo)
8 | > 250 | 14.3 | COc1cc(CC[C@@H](O)C[C@H](O)CCc2cc(OC)c(O)c(OC)c2)ccc1O (relative stereo)
9 | > 250 | 3.3 | COc1cc(CC[C@H](C[C@H](CCc2ccc(O)cc2)OC(C)=O)OC(C)=O)cc(OC)c1O (relative stereo)
10 | 77.5 |  | NC(=O)NO [HYDROXYUREA]
